The results in this text go back to patent US20120122924A1, “NAMPT INHIBITORS” (ABBOTT LABORATORIES, priority 2010, published 2012).

This test addresses recombinant, human, C-terminally-His tagged NAMPT (Homo sapiens, UniProt P43490). In words: Time-Resolved Fluorescence Resonance Energy Transfer (TR-FRET) binding assay of NAMPT. To be noted: 6.8 nM NAMPT, 200 nM probe (Oregon Green 488-conjugated APO866), 1 nM Tb-anti-His antibody, 2-3 hours. As to the method: Determination of the utility of compounds having Formula (I) as binders to and inhibitors of NAMPT was performed using a Time-Resolved Fluorescence Resonance Energy Transfer (TR-FRET) binding assay.
Time-Resolved Fluorescence Resonance Energy Transfer (TR-FRET) Binding Assay of NAMPT
The assay was carried out in 18 uL low volume plates (Owens Corning) in reaction buffer (50 mM HEPES (NaOH), pH 7.5, 100 mM NaCl, 10 mM MgCl2, 1 mM DTT, 1% Glycerol) using 6.8 nM recombinant, human, C-terminally-His tagged NAMPT, 1 nM Tb-anti-His antibody (Invitrogen, Cat # PV5895), and 200 nM probe (Oregon Green 488-conjugated APO866; A-1251667.0). Plates were covered, and reactions were carried out for 2-3 hours. Plates were read with Envision (Laser Lantha low volume protocol) after 2 to 3 hours. Excitation was carried out at 337 nm, and the ratio of emission of Oregon Green (520 nm) to terbium (492 nm) was determined and used to calculate IC50 values of test compounds.
For orientation: In TR-FRET formats the signal depends on donor and acceptor labels being close together.

The term IC50 denotes the midpoint of a concentration-inhibition curve.

Sequence of recombinant, human, C-terminally-His tagged NAMPT (P43490 whole entry): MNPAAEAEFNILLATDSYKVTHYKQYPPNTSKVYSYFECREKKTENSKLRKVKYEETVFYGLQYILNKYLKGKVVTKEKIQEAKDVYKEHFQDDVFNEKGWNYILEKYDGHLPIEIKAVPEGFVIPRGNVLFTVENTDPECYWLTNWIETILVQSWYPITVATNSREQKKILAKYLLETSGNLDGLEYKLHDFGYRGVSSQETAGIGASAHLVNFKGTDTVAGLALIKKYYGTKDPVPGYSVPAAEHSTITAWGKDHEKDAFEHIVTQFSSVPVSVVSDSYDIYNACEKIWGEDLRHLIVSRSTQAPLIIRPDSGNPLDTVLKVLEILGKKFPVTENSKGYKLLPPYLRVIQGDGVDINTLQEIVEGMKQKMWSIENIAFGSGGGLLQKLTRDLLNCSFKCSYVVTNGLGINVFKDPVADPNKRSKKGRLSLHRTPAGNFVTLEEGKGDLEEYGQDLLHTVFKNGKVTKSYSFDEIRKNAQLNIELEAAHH

Take `O=C(CCc1cccs1)Nc1ccc(NC(=O)N2CCc3ccccc3C2)cc1` [Example 33, N-(4-{[3-(2-thienyl)propanoyl]amino}phenyl)-3,4-dihydroisoquinoline-2(1H)-carboxamide]: the IC50 amounted to 40.4 nM. To `CC(C)Cn1cc(-c2ccc(NC(=O)N3CCc4ccccc4C3)cc2)cn1` [Example 34, N-[4-(1-isobutyl-1H-pyrazol-4-yl)phenyl]-3,4-dihydroisoquinoline-2(1H)-carboxamide] belongs 38.8 nM.

Consider `CCCn1cc(-c2ccc(NC(=O)N3CCc4ccccc4C3)cc2)cn1` [Example 35, N-[4-(1-propyl-1H-pyrazol-4-yl)phenyl]-3,4-dihydroisoquinoline-2(1H)-carboxamide], for which the IC50 turned out to be 103 nM. To `C[C@@H](O)Cn1cc(-c2ccc(NC(=O)N3CCc4ccccc4C3)cc2)cn1` [Example 36, N-{4-[1-((2R)-2-hydroxypropyl)-1H-pyrazol-4-yl]phenyl}-3,4-dihydroisoquinoline-2(1H)-carboxamide] belongs 185 nM. As to `CC(C)CCn1cc(-c2ccc(NC(=O)N3CCc4ccccc4C3)cc2)cn1` [Example 37, N-{4-[1-(3-methylbutyl)-1H-pyrazol-4-yl]phenyl}-3,4-dihydroisoquinoline-2(1H)-carboxamide], the IC50 amounted to 298 nM. On to `O=C(Nc1ccc(-c2cnn(Cc3ccccc3)c2)cc1)N1CCc2ccccc2C1` [Example 38, N-[4-(1-benzyl-1H-pyrazol-4-yl)phenyl]-3,4-dihydroisoquinoline-2(1H)-carboxamide], for which the IC50 was 391 nM.

Regarding `O=C(Nc1ccc(/C=C/CCCc2ccccc2)cc1)N1CCc2ccccc2C1` [Example 39, N-{4-[(1E)-5-phenylpent-1-en-1-yl]phenyl}-3,4-dihydroisoquinoline-2(1H)-carboxamide], the IC50 was determined as 611 nM. To `CCn1cc(-c2ccc(NC(=O)N3CCc4ccccc4C3)cc2)cn1` [Example 40, N-[4-(1-ethyl-1H-pyrazol-4-yl)phenyl]-3,4-dihydroisoquinoline-2(1H)-carboxamide] belongs 645 nM.

As to `O=C(Nc1ccc(-c2cnn(CCO)c2)cc1)N1CCc2ccccc2C1` [Example 41, N-{4-[1-(2-hydroxyethyl)-1H-pyrazol-4-yl]phenyl}-3,4-dihydroisoquinoline-2(1H)-carboxamide], the IC50 stood at 819 nM. To `Cn1cc(-c2ccc(NC(=O)N3CCc4ccccc4C3)cc2)cn1` [Example 42, N-[4-(1-methyl-1H-pyrazol-4-yl)phenyl]-3,4-dihydroisoquinoline-2(1H)-carboxamide] belongs 1290 nM. To `O=C(Nc1ccc(C2=CCN(C(=O)c3ccccc3)CC2)cc1)N1CCc2ccccc2C1` [Example 43, N-[4-(1-benzoyl-1,2,3,6-tetrahydropyridin-4-yl)phenyl]-3,4-dihydroisoquinoline-2(1H)-carboxamide] belongs 10.1 nM. To `CCCC(=O)N1CC=C(c2ccc(NC(=O)N3CCc4ccccc4C3)cc2)CC1` [Example 44, N-[4-(1-butyryl-1,2,3,6-tetrahydropyridin-4-yl)phenyl]-3,4-dihydroisoquinoline-2(1H)-carboxamide] belongs 13.6 nM. For `CC(C)S(=O)(=O)N1CC=C(c2ccc(NC(=O)N3CCc4ccccc4C3)cc2)CC1` [Example 45, N-{4-[1-(isopropylsulfonyl)-1,2,3,6-tetrahydropyridin-4-yl]phenyl}-3,4-dihydroisoquinoline-2(1H)-carboxamide], the IC50 amounted to 13.8 nM. To `CC(C)C(=O)N1CC=C(c2ccc(NC(=O)N3CCc4ccccc4C3)cc2)CC1` [Example 46, N-[4-(1-isobutyryl-1,2,3,6-tetrahydropyridin-4-yl)phenyl]-3,4-dihydroisoquinoline-2(1H)-carboxamide] belongs 15.3 nM; to `CC(C)CC(=O)N1CC=C(c2ccc(NC(=O)N3CCc4ccccc4C3)cc2)CC1` [Example 47, N-{4-[1-(3-methylbutanoyl)-1,2,3,6-tetrahydropyridin-4-yl]phenyl}-3,4-dihydroisoquinoline-2(1H)-carboxamide], 20.2 nM; to `CNC(=O)N1CC=C(c2ccc(NC(=O)N3CCc4ccccc4C3)cc2)CC1` [Example 48, N-{4-[1-(methylcarbamoyl)-1,2,3,6-tetrahydropyridin-4-yl]phenyl}-3,4-dihydroisoquinoline-2(1H)-carboxamide], 32.6 nM.

Consider `CC(C)(C)OC(=O)N1CC=C(c2ccc(NC(=O)N3CCc4ccccc4C3)cc2)CC1` [Example 49, tert-butyl 4-{4-[(3,4-dihydroisoquinolin-2(1H)-ylcarbonyl)amino]phenyl}-3,6-dihydropyridine-1(2H)-carboxylate], for which the IC50 worked out at 48.7 nM. To `CC(=O)N1CC=C(c2ccc(NC(=O)N3CCc4ccccc4C3)cc2)CC1` [Example 50, N-[4-(1-acetyl-1,2,3,6-tetrahydropyridin-4-yl)phenyl]-3,4-dihydroisoquinoline-2(1H)-carboxamide] belongs 58.6 nM. To `CC(C)CS(=O)(=O)N1CC=C(c2ccc(NC(=O)N3CCc4ccccc4C3)cc2)CC1` [Example 51, N-{4-[1-(isobutylsulfonyl)-1,2,3,6-tetrahydropyridin-4-yl]phenyl}-3,4-dihydroisoquinoline-2(1H)-carboxamide] belongs 74.9 nM; to `O=C(Nc1ccc(C2=CCN(Cc3ccccc3)CC2)cc1)N1CCc2ccccc2C1` [Example 52, N-[4-(1-benzyl-1,2,3,6-tetrahydropyridin-4-yl)phenyl]-3,4-dihydroisoquinoline-2(1H)-carboxamide], 80.5 nM. As for `CS(=O)(=O)N1CC=C(c2ccc(NC(=O)N3CCc4ccccc4C3)cc2)CC1` [Example 53, N-{4-[1-(methylsulfonyl)-1,2,3,6-tetrahydropyridin-4-yl]phenyl}-3,4-dihydroisoquinoline-2(1H)-carboxamide], the IC50 came to 112 nM.

Consider `O=C(Nc1ccc(C2=CCNCC2)cc1)N1CCc2ccccc2C1` [Example 54, N-[4-(1,2,3,6-tetrahydropyridin-4-yl)phenyl]-3,4-dihydroisoquinoline-2(1H)-carboxamide], for which the half-maximal inhibitory concentration (IC50) turned out to be 289 nM. The result for `CC(C)CCN1CC=C(c2ccc(NC(=O)N3CCc4ccccc4C3)cc2)CC1` [Example 55, N-{4-[1-(3-methylbutyl)-1,2,3,6-tetrahydropyridin-4-yl]phenyl}-3,4-dihydroisoquinoline-2(1H)-carboxamide] reads 435 nM. Turning to `CCCc1nc(-c2ccc(NC(=O)N3CCc4ccccc4C3)cc2)no1` [Example 56, N-[4-(5-propyl-1,2,4-oxadiazol-3-yl)phenyl]-3,4-dihydroisoquinoline-2(1H)-carboxamide], the IC50 was 189 nM. Consider `O=C(Nc1ccc(-c2noc(Cc3ccccc3)n2)cc1)N1CCc2ccccc2C1` [Example 57, N-[4-(5-benzyl-1,2,4-oxadiazol-3-yl)phenyl]-3,4-dihydroisoquinoline-2(1H)-carboxamide], for which the half-inhibitory concentration (IC50) was 887 nM. Take `CC(C)CCc1nc(-c2ccc(NC(=O)N3CCc4ccccc4C3)cc2)no1` [Example 58, N-{4-[5-(3-methylbutyl)-1,2,4-oxadiazol-3-yl]phenyl}-3,4-dihydroisoquinoline-2(1H)-carboxamide]: the IC50 came out at 1260 nM.

Regarding `CCCCCCNC(=O)N1CCc2ccccc2C1` [Example 59, N-hexyl-3,4-dihydroisoquinoline-2(1H)-carboxamide], the half-maximal inhibitory concentration (IC50) was found to be 864 nM. The result for `CCOC(=O)CCCCCNC(=O)N1CCc2ccccc2C1` [Example 60, ethyl 6-[(3,4-dihydroisoquinolin-2(1H)-ylcarbonyl)amino]hexanoate] reads 1370 nM; that for `O=C(Cc1ccccc1)NCCc1ccc(NC(=O)N2CCc3ccccc3C2)cc1` [Example 61, N-(4-{2-[(phenylacetyl)amino]ethyl}phenyl)-3,4-dihydroisoquinoline-2(1H)-carboxamide], 1250 nM.

For `CC(C)C(=O)NCCc1ccc(NC(=O)N2CCc3ccccc3C2)cc1` [Example 62, N-{4-[2-(isobutyrylamino)ethyl]phenyl}-3,4-dihydroisoquinoline-2(1H)-carboxamide], the IC50 was 1470 nM. `O=C(COCc1ccccc1)Nc1ccc(NC(=O)N2CCc3ccccc3C2)cc1` [Example 63, N-(4-{[(benzyloxy)acetyl]amino}phenyl)-3,4-dihydroisoquinoline-2(1H)-carboxamide]: the IC50 was 10.7 nM. Take `COC1CCC(C(=O)Nc2ccc(NC(=O)N3CCc4ccccc4C3)cc2)CC1` (centres unmarked) [Example 64, N-(4-{[(4-methoxycyclohexyl)carbonyl]amino}phenyl)-3,4-dihydroisoquinoline-2(1H)-carboxamide]: the IC50 was 55 nM.

Take `CC(=O)N1CCC(C(=O)Nc2ccc(NC(=O)N3CCc4ccccc4C3)cc2)CC1` [Example 65, N-(4-{[(1-acetylpiperidin-4-yl)carbonyl]amino}phenyl)-3,4-dihydroisoquinoline-2(1H)-carboxamide]: the IC50 was 116 nM. The result for `O=C(CCC(=O)c1cccs1)Nc1ccc(NC(=O)N2CCc3ccccc3C2)cc1` [Example 66, N-(4-{[4-oxo-4-(2-thienyl)butanoyl]amino}phenyl)-3,4-dihydroisoquinoline-2(1H)-carboxamide] reads 15.3 nM; that for `O=C(CCS(=O)(=O)c1ccccc1)Nc1ccc(NC(=O)N2CCc3ccccc3C2)cc1` [Example 67, N-(4-{[3-(phenylsulfonyl)propanoyl]amino}phenyl)-3,4-dihydroisoquinoline-2(1H)-carboxamide], 16.7 nM.
